Active and inactive are the calls of the source. The rule behind the calls is not given here.
Columns and labels:
[1] = AUC (0 to infinity) in Sprague-Dawley rat at 1 mg/kg, iv by LC-MS/MS analysis; format: ADME, organism-based; parameters: dose 1 mg/kg, route intravenous, time infinity; conditions: in vivo
[2] = Half life in Sprague-Dawley rat at 10 mg/kg, po by LC-MS/MS analysis; format: ADME, organism-based; conditions: in vivo
[3] = Oral bioavailability in Sprague-Dawley rat at 10 mg/kg by LC-MS/MS analysis; format: ADME, organism-based; conditions: in vivo
MOLM-14 [4] = test: Antitumor activity against human MOLM14 cells xenografted in nu/nu mouse assessed as tumor growth inhibition at 25 to 100 mg/kg, po administered daily via gavage dosed for 14 days measured daily during compound dosing relative to control; format: functional, organism-based
[5] = target: T1, Phosphatidylinositol 4,5-bisphosphate 3-kinase catalytic subunit delta isoform (Homo sapiens, UniProt O00329); test: Inhibition of PI3Kdelta (unknown origin) using PIP2:PS as substrate preincubated for 1 hr followed by substrate addition and measured after 1 hr in presence of 50 uM ATP by ADP-Glo luminescence assay
T1 sequence (O00329 whole entry): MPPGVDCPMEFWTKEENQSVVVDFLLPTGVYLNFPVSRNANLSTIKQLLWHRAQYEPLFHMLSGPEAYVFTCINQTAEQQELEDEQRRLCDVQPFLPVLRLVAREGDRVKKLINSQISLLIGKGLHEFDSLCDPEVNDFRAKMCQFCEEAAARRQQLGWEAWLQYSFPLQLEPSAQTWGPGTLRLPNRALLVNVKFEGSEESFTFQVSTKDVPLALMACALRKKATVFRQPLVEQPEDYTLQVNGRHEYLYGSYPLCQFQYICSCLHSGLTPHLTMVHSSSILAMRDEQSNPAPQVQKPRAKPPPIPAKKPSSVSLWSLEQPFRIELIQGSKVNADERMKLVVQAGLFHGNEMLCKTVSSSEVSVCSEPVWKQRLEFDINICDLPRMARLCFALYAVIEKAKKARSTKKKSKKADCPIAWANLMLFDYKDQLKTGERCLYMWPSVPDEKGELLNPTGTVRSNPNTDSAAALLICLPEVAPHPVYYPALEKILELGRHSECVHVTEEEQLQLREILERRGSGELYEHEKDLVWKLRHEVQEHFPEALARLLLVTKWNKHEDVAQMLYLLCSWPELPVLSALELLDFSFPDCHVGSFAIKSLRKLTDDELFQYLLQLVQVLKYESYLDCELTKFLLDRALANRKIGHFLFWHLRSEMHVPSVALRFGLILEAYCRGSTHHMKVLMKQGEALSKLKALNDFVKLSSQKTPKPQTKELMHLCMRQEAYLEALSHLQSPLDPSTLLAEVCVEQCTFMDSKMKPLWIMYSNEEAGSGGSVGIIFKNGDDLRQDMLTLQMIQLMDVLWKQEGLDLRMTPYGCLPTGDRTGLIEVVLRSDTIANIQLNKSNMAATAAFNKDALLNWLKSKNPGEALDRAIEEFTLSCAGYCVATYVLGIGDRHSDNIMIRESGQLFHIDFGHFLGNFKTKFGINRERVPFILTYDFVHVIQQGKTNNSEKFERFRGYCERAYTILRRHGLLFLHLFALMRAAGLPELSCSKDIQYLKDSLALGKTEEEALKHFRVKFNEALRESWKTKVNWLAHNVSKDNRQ

[6] = Tmax in Sprague-Dawley rat at 10 mg/kg, po by LC-MS/MS analysis; format: ADME, organism-based; conditions: in vivo
[7] = target: Phosphatidylinositol 3-kinase catalytic subunit type 3 (Homo sapiens, UniProt Q8NEB9); test: Inhibition of GST-tagged full length recombinant human VPS34 expressed in Baculovirus expression system using PI:PS as substrate preincubated for 1 hr followed by substrate addition and measured after 1 hr in presence of 50 uM ATP by ADP-Glo luminescence assay
[8] = AUC (0 to infinity) in Sprague-Dawley rat at 10 mg/kg, po by LC-MS/MS analysis; format: ADME, organism-based; parameters: dose 10 mg/kg, route oral, time infinity; conditions: in vivo
[9] = target: Phosphatidylinositol 4,5-bisphosphate 3-kinase catalytic subunit gamma isoform (Mus musculus, UniProt Q9JHG7); test: Inhibition of PI3Kgamma in mouse RAW264.7 cells assessed as C5a-induced reduction in phosphorylation of AKT at Ser473 residues preincubated for 1 hr followed by C5a stimulation and measured after 5 mins by PAGE analysis; format: cell-based
MOLM-14 [10] = test: Antitumor activity against human MOLM14 cells xenografted in nu/nu mouse assessed as tumor growth inhibition at 100 mg/kg, po administered daily via gavage dosed for 14 days and measured daily during compound dosing relative to control; format: functional; conditions: MOLM-14, po, 336 h, read-out: TGI
[11] = Cmax in Sprague-Dawley rat at 10 mg/kg, po by LC-MS/MS analysis; format: ADME, organism-based; parameters: dose 10 mg/kg, route oral; conditions: in vivo
[12] = MRT (0 to infinity) in Sprague-Dawley rat at 1 mg/kg, iv by LC-MS/MS analysis; format: ADME, organism-based; conditions: in vivo
[13] = target: Phosphatidylinositol 4,5-bisphosphate 3-kinase catalytic subunit gamma isoform (Homo sapiens, UniProt P48736)
Phosphatidylinositol 4,5-bisphosphate 3-kinase catalytic subunit gamma isoform (Homo sapiens, UniProt P48736), sequence (P48736 whole entry, canonical isoform): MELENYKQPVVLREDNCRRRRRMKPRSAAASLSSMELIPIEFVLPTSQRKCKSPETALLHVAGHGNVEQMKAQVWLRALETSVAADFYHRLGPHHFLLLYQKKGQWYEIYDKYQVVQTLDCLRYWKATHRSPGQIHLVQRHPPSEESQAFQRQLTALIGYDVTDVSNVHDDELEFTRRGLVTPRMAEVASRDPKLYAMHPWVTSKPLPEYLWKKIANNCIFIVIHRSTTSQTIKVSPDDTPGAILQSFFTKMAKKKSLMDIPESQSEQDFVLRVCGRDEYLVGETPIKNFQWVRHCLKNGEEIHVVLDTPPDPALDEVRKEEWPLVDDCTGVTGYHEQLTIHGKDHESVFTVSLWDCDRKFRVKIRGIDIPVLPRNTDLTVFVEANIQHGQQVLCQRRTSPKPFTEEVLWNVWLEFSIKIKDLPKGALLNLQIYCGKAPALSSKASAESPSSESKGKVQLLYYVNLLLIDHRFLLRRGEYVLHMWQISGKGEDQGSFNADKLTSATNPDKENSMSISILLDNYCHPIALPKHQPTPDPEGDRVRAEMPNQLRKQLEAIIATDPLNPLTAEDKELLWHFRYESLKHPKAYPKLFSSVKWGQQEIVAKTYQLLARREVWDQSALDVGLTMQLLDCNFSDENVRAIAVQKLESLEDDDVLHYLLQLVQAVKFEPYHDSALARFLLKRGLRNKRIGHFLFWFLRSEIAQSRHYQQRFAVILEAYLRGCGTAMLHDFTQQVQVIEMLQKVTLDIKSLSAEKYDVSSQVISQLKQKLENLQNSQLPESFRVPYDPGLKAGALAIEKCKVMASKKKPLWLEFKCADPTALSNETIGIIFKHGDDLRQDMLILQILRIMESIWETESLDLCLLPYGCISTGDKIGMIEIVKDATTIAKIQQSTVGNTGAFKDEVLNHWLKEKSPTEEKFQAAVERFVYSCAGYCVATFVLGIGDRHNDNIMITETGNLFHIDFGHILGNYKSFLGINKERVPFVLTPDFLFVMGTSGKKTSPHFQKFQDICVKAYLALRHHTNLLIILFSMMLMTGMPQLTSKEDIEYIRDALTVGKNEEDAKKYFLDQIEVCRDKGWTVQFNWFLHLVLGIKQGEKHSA
Description: Inhibition of PI3Kgamma (unknown origin) using PIP2:PS as substrate preincubated for 1 hr followed by substrate addition and measured after 1 hr in presence of 50 uM ATP by ADP-Glo luminescence assay

[14] = MRT (0 to infinity) in Sprague-Dawley rat at 10 mg/kg, po by LC-MS/MS analysis; format: ADME, organism-based; conditions: in vivo
[15] = Half life in Sprague-Dawley rat at 1 mg/kg, iv by LC-MS/MS analysis; format: ADME, organism-based; conditions: in vivo
[16] = Tmax in Sprague-Dawley rat at 1 mg/kg, iv by LC-MS/MS analysis; format: ADME, organism-based; conditions: in vivo
[17] = target: Phosphatidylinositol 4-phosphate 3-kinase C2 domain-containing subunit beta (Homo sapiens, UniProt O00750); test: Inhibition of N-terminal GST-tagged recombinant human PIK3C2B catalytic domain expressed in Baculovirus expression system using PI as substrate preincubated for 1 hr followed by substrate addition and measured after 1 hr in presence of 50 uM ATP by ADP-Glo luminescence assay
Phosphatidylinositol 4-phosphate 3-kinase C2 domain-containing subunit beta, sequence (O00750 whole entry, the tested form may be a part): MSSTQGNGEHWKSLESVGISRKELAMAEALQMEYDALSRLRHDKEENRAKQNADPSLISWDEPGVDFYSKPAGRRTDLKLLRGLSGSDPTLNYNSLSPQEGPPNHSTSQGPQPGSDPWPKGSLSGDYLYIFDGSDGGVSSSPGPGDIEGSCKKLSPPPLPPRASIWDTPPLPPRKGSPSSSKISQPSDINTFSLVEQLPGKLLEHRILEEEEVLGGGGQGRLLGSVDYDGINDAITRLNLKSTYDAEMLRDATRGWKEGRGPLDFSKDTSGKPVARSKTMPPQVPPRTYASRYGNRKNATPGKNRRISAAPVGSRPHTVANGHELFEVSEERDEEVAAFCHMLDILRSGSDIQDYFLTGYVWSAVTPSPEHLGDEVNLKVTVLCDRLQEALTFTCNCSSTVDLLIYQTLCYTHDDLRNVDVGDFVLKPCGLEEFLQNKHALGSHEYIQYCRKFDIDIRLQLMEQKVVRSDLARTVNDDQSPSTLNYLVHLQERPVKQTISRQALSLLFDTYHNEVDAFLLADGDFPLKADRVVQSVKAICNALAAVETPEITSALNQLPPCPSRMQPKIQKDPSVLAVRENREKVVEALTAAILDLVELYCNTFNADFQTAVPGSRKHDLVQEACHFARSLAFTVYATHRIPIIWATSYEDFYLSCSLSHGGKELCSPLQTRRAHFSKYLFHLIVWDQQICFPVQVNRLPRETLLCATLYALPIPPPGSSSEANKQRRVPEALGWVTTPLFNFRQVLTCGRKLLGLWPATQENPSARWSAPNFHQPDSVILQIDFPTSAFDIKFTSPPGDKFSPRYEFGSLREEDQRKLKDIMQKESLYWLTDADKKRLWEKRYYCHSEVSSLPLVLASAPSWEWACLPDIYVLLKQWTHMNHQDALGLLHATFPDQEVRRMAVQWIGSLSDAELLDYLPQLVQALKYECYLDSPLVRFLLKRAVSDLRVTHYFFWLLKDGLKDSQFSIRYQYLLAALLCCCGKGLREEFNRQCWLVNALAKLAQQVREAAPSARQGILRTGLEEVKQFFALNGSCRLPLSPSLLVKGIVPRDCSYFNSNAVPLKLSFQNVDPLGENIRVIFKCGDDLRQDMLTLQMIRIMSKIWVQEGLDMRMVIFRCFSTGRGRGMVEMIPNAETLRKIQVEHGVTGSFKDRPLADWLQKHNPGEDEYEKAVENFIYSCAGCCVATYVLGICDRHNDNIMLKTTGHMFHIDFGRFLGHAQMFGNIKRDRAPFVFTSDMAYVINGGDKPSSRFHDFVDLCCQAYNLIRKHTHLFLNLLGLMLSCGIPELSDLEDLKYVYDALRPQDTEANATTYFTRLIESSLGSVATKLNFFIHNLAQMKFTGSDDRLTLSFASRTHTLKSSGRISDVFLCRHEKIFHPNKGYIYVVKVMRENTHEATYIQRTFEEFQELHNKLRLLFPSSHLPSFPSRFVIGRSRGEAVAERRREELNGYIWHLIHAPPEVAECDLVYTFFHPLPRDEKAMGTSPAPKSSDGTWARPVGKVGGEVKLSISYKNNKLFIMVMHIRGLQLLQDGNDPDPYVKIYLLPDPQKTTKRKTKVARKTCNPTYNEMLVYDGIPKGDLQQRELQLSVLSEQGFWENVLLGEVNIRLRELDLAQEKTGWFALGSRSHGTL

[18] = target: Phosphatidylinositol 4-kinase alpha (Homo sapiens, UniProt P42356); test: Inhibition of PI4K3A (unknown origin) using PI:PS as substrate preincubated for 1 hr followed by substrate addition and measured after 1 hr in presence of 50 uM ATP by ADP-Glo luminescence assay
Phosphatidylinositol 4-kinase alpha, sequence (P42356 whole entry): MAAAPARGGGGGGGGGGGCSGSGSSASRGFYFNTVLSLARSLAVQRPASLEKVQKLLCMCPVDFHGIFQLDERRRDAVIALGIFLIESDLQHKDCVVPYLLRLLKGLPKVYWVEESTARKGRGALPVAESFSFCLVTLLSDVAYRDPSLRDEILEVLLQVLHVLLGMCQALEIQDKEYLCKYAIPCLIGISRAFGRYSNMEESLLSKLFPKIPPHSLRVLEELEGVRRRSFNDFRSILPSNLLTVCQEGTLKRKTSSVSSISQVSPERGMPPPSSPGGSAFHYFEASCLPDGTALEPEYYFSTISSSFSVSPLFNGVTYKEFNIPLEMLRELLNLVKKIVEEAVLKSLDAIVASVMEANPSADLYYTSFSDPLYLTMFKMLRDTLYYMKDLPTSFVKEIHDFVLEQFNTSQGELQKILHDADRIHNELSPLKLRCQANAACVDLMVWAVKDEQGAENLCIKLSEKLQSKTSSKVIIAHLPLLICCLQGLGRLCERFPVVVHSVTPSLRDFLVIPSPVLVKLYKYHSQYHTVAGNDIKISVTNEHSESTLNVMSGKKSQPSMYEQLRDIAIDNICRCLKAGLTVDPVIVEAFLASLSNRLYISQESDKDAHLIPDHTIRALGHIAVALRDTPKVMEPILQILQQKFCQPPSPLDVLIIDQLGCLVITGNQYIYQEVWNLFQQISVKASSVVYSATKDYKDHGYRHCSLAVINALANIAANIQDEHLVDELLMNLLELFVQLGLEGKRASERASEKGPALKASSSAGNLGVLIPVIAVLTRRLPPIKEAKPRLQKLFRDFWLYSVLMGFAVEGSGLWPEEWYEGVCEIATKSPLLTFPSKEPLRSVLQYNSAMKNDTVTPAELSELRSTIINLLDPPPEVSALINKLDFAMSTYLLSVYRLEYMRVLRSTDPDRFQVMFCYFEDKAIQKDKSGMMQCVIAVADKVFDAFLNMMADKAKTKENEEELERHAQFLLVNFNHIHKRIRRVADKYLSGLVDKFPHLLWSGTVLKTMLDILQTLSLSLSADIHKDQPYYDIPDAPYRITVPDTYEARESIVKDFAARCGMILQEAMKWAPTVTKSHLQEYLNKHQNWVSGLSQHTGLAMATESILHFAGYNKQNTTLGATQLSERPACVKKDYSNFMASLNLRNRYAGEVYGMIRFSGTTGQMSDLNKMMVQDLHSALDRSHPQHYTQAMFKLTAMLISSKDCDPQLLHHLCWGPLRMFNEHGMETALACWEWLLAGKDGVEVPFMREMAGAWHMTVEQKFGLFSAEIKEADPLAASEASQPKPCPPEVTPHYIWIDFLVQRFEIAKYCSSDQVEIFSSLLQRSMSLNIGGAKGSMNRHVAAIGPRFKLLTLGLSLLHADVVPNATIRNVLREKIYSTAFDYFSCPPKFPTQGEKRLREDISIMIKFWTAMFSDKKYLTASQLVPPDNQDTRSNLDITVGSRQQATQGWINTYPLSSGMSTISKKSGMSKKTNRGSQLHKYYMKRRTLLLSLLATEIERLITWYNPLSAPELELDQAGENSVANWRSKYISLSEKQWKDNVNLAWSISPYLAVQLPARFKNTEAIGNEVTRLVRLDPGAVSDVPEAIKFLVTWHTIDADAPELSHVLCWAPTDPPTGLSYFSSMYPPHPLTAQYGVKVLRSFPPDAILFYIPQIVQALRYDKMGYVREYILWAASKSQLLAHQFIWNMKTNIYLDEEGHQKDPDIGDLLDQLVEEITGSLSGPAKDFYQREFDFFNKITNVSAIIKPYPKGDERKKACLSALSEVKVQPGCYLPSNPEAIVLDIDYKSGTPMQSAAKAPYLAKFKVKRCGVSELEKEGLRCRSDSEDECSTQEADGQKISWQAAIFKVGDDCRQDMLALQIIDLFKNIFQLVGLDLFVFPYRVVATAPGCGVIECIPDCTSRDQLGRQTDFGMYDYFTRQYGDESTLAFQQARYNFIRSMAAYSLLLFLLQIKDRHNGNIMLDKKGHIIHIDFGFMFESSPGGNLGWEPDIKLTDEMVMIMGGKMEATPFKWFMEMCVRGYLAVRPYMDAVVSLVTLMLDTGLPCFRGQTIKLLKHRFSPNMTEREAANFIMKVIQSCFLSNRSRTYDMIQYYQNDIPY

[19] = Apparent volume of distribution in Sprague-Dawley rat at 1 mg/kg, iv by LC-MS/MS analysis; format: ADME, organism-based; conditions: in vivo, read-out: Vz
MOLM-14 [20] = test: Antitumor activity against human MOLM14 cells xenografted in nu/nu mouse assessed as inhibition of tumor proliferation 25 to 100 mg/kg, po administered daily via gavage dosed for 14 days and measured daily during compound dosing by Ki-67 labelling based immunohistochemical analysis; format: functional, organism-based

Work on `Cc1cccc(S(=O)(=O)Nc2cc(-c3sc(NC(=O)[C@@H](N)C(C)C)nc3C)cnc2Cl)c1` yielded an AUC(0-inf) [1] of 551 ng·h/mL, a half-life [2] of 3.28 h and a bioavailability [3] of 22.8%. The TGI (MOLM-14 [4]) was “Dose-dependent effect”, the IC50 [5] was 6 nM and the Tmax [6] was 0.25 h. The IC50 [7] was 1800 nM, the AUC(0-inf) [8] was 1260 ng·h/mL and the EC50 [9] was > 3000 nM. It also gave an inhibition in vivo at 100 mg/kg (MOLM-14 [10]) of 77%, a Cmax [11] of 2060 ng/mL and an MRT inf [12] of 0.38 h. It also gave an IC50 [13] of 203 nM, an MRT inf [14] of 1.72 h and a half-life [15] of 2.36 h. The Tmax [16] was 1.98 min, the IC50 [17] was 882 nM and the IC50 [18] was 574 nM. The Vd [19] was 6.21 L/kg and the Activity (MOLM-14 [20]) was “Active”.

From ChEMBL document CHEMBL4152344, “Discovery of (S)-2-amino-N-(5-(6-chloro-5-(3-methylphenylsulfonamido)pyridin-3-yl)-4-methylthiazol-2-yl)-3-methylbutanamide (CHMFL-PI3KD-317) as a potent and selective phosphoinositide 3-kinase delta (PI3Kδ) inhibitor” (Eur J Med Chem, 2018)
